Reference: patent publication US20140120232A1, “ACID TASTE/ACID SMELL-REDUCING AGENT” (T. HASEGAWA CO., LTD., priority 2011, published 2014)

Columns and labels:
[1] = Sensory evaluation of dressing containing the agent; conditions: ten panels
Protocol: (§1) Sensory evaluation of each drink was carried out by ten panels. […] The piercing aroma characteristic to aldehydes is a characteristic aroma common to every aldehyde and refers to an irritant off-smell giving an image of deteriorated oils and fats, soap, metals, Houttuynia cordata, etc. The judgment of smell was performed by comparing the effects at different concentrations of the acid taste and/or acid smell-reducing agent, and a concentration giving the highest acid taste/acid smell quality was selected.
A separation-type dressing base material (100 g) was prepared by mixing 20 g of edible vinegar, 35 g of vegetable oils and fats, and 45 g of an aqueous solution containing spices and extracts with stirring. To the resulting mixture was added (Z,Z)-4,7-tridecadienal as the acid taste and/or acid smell-reducing agent of the present invention in concentrations shown in the following Table 10 to give dressings containing the agent, followed by sensory evaluation as in Example 1.

[2] = Sensory evaluation of orange juice containing the agent; conditions: ten panels
Protocol: as §1
To commercially available 100% orange juice was added (Z,Z)-4,7-tridecadienal as the acid taste and/or acid smell-reducing agent of the present invention in concentrations shown in the following Table 12 to give orange juice containing the agent, followed by sensory evaluation as in Example 1.

## CCCCC/C=C\C/C=C\CCC=O [(Z,Z)-4,7-tridecadienal]
[1]; 0.005 ppt
  A: number of panels, acid taste/acid smell extreme and cause irritation: 10
  B: number of panels, acid taste/acid smell slightly strong and slightly cause irritation: 0
  C: number of panels, acid taste/acid smell slightly unpleasant: 0
  Flavor judgment: number of panels who judged acid taste/acid smell quality the highest: 0
  N: number of panels, irritation of acid reduced to give a mild acid taste: 0
  X: number of panels, acid taste reduced but piercing odor characteristic to aldehydes unpleasant: 0
[1]; 0.02 ppt
  A: number of panels, acid taste/acid smell extreme and cause irritation: 9
  B: number of panels, acid taste/acid smell slightly strong and slightly cause irritation: 1
  C: number of panels, acid taste/acid smell slightly unpleasant: 0
  Flavor judgment: number of panels who judged acid taste/acid smell quality the highest: 0
  N: number of panels, irritation of acid reduced to give a mild acid taste: 0
  X: number of panels, acid taste reduced but piercing odor characteristic to aldehydes unpleasant: 0
[1]; 0.1 ppt
  A: number of panels, acid taste/acid smell extreme and cause irritation: 6
  B: number of panels, acid taste/acid smell slightly strong and slightly cause irritation: 4
  C: number of panels, acid taste/acid smell slightly unpleasant: 0
  Flavor judgment: number of panels who judged acid taste/acid smell quality the highest: 0
  N: number of panels, irritation of acid reduced to give a mild acid taste: 0
  X: number of panels, acid taste reduced but piercing odor characteristic to aldehydes unpleasant: 0
[1]; 0.2 ppt
  A: number of panels, acid taste/acid smell extreme and cause irritation: 4
  B: number of panels, acid taste/acid smell slightly strong and slightly cause irritation: 4
  C: number of panels, acid taste/acid smell slightly unpleasant: 2
  Flavor judgment: number of panels who judged acid taste/acid smell quality the highest: 0
  N: number of panels, irritation of acid reduced to give a mild acid taste: 0
  X: number of panels, acid taste reduced but piercing odor characteristic to aldehydes unpleasant: 0
[1]; 0.5 ppt
  A: number of panels, acid taste/acid smell extreme and cause irritation: 1
  B: number of panels, acid taste/acid smell slightly strong and slightly cause irritation: 2
  C: number of panels, acid taste/acid smell slightly unpleasant: 2
  Flavor judgment: number of panels who judged acid taste/acid smell quality the highest: 1
  N: number of panels, irritation of acid reduced to give a mild acid taste: 5
  X: number of panels, acid taste reduced but piercing odor characteristic to aldehydes unpleasant: 0
[1]; 1 ppb
  A: number of panels, acid taste/acid smell extreme and cause irritation: 0
  B: number of panels, acid taste/acid smell slightly strong and slightly cause irritation: 0
  C: number of panels, acid taste/acid smell slightly unpleasant: 3
  Flavor judgment: number of panels who judged acid taste/acid smell quality the highest: 0
  N: number of panels, irritation of acid reduced to give a mild acid taste: 3
  X: number of panels, acid taste reduced but piercing odor characteristic to aldehydes unpleasant: 4
[1]; 1 ppt
  A: number of panels, acid taste/acid smell extreme and cause irritation: 0
  B: number of panels, acid taste/acid smell slightly strong and slightly cause irritation: 1
  C: number of panels, acid taste/acid smell slightly unpleasant: 3
  Flavor judgment: number of panels who judged acid taste/acid smell quality the highest: 1
  N: number of panels, irritation of acid reduced to give a mild acid taste: 6
  X: number of panels, acid taste reduced but piercing odor characteristic to aldehydes unpleasant: 0
[1]; 5 ppt
  A: number of panels, acid taste/acid smell extreme and cause irritation: 0
  B: number of panels, acid taste/acid smell slightly strong and slightly cause irritation: 0
  C: number of panels, acid taste/acid smell slightly unpleasant: 3
  Flavor judgment: number of panels who judged acid taste/acid smell quality the highest: 4
  N: number of panels, irritation of acid reduced to give a mild acid taste: 7
  X: number of panels, acid taste reduced but piercing odor characteristic to aldehydes unpleasant: 0
[1]; 10 ppb
  A: number of panels, acid taste/acid smell extreme and cause irritation: 0
  B: number of panels, acid taste/acid smell slightly strong and slightly cause irritation: 0
  C: number of panels, acid taste/acid smell slightly unpleasant: 1
  Flavor judgment: number of panels who judged acid taste/acid smell quality the highest: 0
  N: number of panels, irritation of acid reduced to give a mild acid taste: 2
  X: number of panels, acid taste reduced but piercing odor characteristic to aldehydes unpleasant: 7
[1]; 20 ppt
  A: number of panels, acid taste/acid smell extreme and cause irritation: 0
  B: number of panels, acid taste/acid smell slightly strong and slightly cause irritation: 0
  C: number of panels, acid taste/acid smell slightly unpleasant: 3
  Flavor judgment: number of panels who judged acid taste/acid smell quality the highest: 4
  N: number of panels, irritation of acid reduced to give a mild acid taste: 7
  X: number of panels, acid taste reduced but piercing odor characteristic to aldehydes unpleasant: 0
[1]; 50 ppb
  A: number of panels, acid taste/acid smell extreme and cause irritation: 0
  B: number of panels, acid taste/acid smell slightly strong and slightly cause irritation: 0
  C: number of panels, acid taste/acid smell slightly unpleasant: 0
  Flavor judgment: number of panels who judged acid taste/acid smell quality the highest: 0
  N: number of panels, irritation of acid reduced to give a mild acid taste: 2
  X: number of panels, acid taste reduced but piercing odor characteristic to aldehydes unpleasant: 8
[1]; 100 ppt
  A: number of panels, acid taste/acid smell extreme and cause irritation: 0
  B: number of panels, acid taste/acid smell slightly strong and slightly cause irritation: 1
  C: number of panels, acid taste/acid smell slightly unpleasant: 3
  Flavor judgment: number of panels who judged acid taste/acid smell quality the highest: 0
  N: number of panels, irritation of acid reduced to give a mild acid taste: 4
  X: number of panels, acid taste reduced but piercing odor characteristic to aldehydes unpleasant: 2
[1]; 500 ppt
  A: number of panels, acid taste/acid smell extreme and cause irritation: 0
  B: number of panels, acid taste/acid smell slightly strong and slightly cause irritation: 0
  C: number of panels, acid taste/acid smell slightly unpleasant: 4
  Flavor judgment: number of panels who judged acid taste/acid smell quality the highest: 0
  N: number of panels, irritation of acid reduced to give a mild acid taste: 4
  X: number of panels, acid taste reduced but piercing odor characteristic to aldehydes unpleasant: 2
[2]; 0.005 ppt
  A: number of panels, acid taste/acid smell extreme and cause irritation: 10
  B: number of panels, acid taste/acid smell slightly strong and slightly cause irritation: 0
  C: number of panels, acid taste/acid smell slightly unpleasant: 0
  Flavor judgment: number of panels who judged acid taste/acid smell quality the highest: 0
  N: number of panels, irritation of acid reduced to give a mild acid taste: 0
  X: number of panels, acid taste reduced but piercing odor characteristic to aldehydes unpleasant: 0
[2]; 0.02 ppt
  A: number of panels, acid taste/acid smell extreme and cause irritation: 9
  B: number of panels, acid taste/acid smell slightly strong and slightly cause irritation: 1
  C: number of panels, acid taste/acid smell slightly unpleasant: 0
  Flavor judgment: number of panels who judged acid taste/acid smell quality the highest: 0
  N: number of panels, irritation of acid reduced to give a mild acid taste: 0
  X: number of panels, acid taste reduced but piercing odor characteristic to aldehydes unpleasant: 0
[2]; 0.1 ppt
  A: number of panels, acid taste/acid smell extreme and cause irritation: 8
  B: number of panels, acid taste/acid smell slightly strong and slightly cause irritation: 1
  C: number of panels, acid taste/acid smell slightly unpleasant: 1
  Flavor judgment: number of panels who judged acid taste/acid smell quality the highest: 0
  N: number of panels, irritation of acid reduced to give a mild acid taste: 0
  X: number of panels, acid taste reduced but piercing odor characteristic to aldehydes unpleasant: 0
[2]; 0.2 ppt
  A: number of panels, acid taste/acid smell extreme and cause irritation: 6
  B: number of panels, acid taste/acid smell slightly strong and slightly cause irritation: 2
  C: number of panels, acid taste/acid smell slightly unpleasant: 2
  Flavor judgment: number of panels who judged acid taste/acid smell quality the highest: 0
  N: number of panels, irritation of acid reduced to give a mild acid taste: 0
  X: number of panels, acid taste reduced but piercing odor characteristic to aldehydes unpleasant: 0
[2]; 0.5 ppt
  A: number of panels, acid taste/acid smell extreme and cause irritation: 0
  B: number of panels, acid taste/acid smell slightly strong and slightly cause irritation: 2
  C: number of panels, acid taste/acid smell slightly unpleasant: 2
  Flavor judgment: number of panels who judged acid taste/acid smell quality the highest: 1
  N: number of panels, irritation of acid reduced to give a mild acid taste: 6
  X: number of panels, acid taste reduced but piercing odor characteristic to aldehydes unpleasant: 0
[2]; 1 ppb
  A: number of panels, acid taste/acid smell extreme and cause irritation: 0
  B: number of panels, acid taste/acid smell slightly strong and slightly cause irritation: 0
  C: number of panels, acid taste/acid smell slightly unpleasant: 2
  Flavor judgment: number of panels who judged acid taste/acid smell quality the highest: 0
  N: number of panels, irritation of acid reduced to give a mild acid taste: 4
  X: number of panels, acid taste reduced but piercing odor characteristic to aldehydes unpleasant: 4
[2]; 1 ppt
  A: number of panels, acid taste/acid smell extreme and cause irritation: 0
  B: number of panels, acid taste/acid smell slightly strong and slightly cause irritation: 2
  C: number of panels, acid taste/acid smell slightly unpleasant: 2
  Flavor judgment: number of panels who judged acid taste/acid smell quality the highest: 1
  N: number of panels, irritation of acid reduced to give a mild acid taste: 6
  X: number of panels, acid taste reduced but piercing odor characteristic to aldehydes unpleasant: 0
[2]; 5 ppt
  A: number of panels, acid taste/acid smell extreme and cause irritation: 0
  B: number of panels, acid taste/acid smell slightly strong and slightly cause irritation: 1
  C: number of panels, acid taste/acid smell slightly unpleasant: 2
  Flavor judgment: number of panels who judged acid taste/acid smell quality the highest: 4
  N: number of panels, irritation of acid reduced to give a mild acid taste: 7
  X: number of panels, acid taste reduced but piercing odor characteristic to aldehydes unpleasant: 0
[2]; 10 ppb
  A: number of panels, acid taste/acid smell extreme and cause irritation: 0
  B: number of panels, acid taste/acid smell slightly strong and slightly cause irritation: 0
  C: number of panels, acid taste/acid smell slightly unpleasant: 1
  Flavor judgment: number of panels who judged acid taste/acid smell quality the highest: 0
  N: number of panels, irritation of acid reduced to give a mild acid taste: 3
  X: number of panels, acid taste reduced but piercing odor characteristic to aldehydes unpleasant: 6
[2]; 20 ppt
  A: number of panels, acid taste/acid smell extreme and cause irritation: 0
  B: number of panels, acid taste/acid smell slightly strong and slightly cause irritation: 0
  C: number of panels, acid taste/acid smell slightly unpleasant: 3
  Flavor judgment: number of panels who judged acid taste/acid smell quality the highest: 4
  N: number of panels, irritation of acid reduced to give a mild acid taste: 7
  X: number of panels, acid taste reduced but piercing odor characteristic to aldehydes unpleasant: 0
[2]; 50 ppb
  A: number of panels, acid taste/acid smell extreme and cause irritation: 0
  B: number of panels, acid taste/acid smell slightly strong and slightly cause irritation: 0
  C: number of panels, acid taste/acid smell slightly unpleasant: 1
  Flavor judgment: number of panels who judged acid taste/acid smell quality the highest: 0
  N: number of panels, irritation of acid reduced to give a mild acid taste: 2
  X: number of panels, acid taste reduced but piercing odor characteristic to aldehydes unpleasant: 7
[2]; 100 ppt
  A: number of panels, acid taste/acid smell extreme and cause irritation: 0
  B: number of panels, acid taste/acid smell slightly strong and slightly cause irritation: 0
  C: number of panels, acid taste/acid smell slightly unpleasant: 4
  Flavor judgment: number of panels who judged acid taste/acid smell quality the highest: 0
  N: number of panels, irritation of acid reduced to give a mild acid taste: 4
  X: number of panels, acid taste reduced but piercing odor characteristic to aldehydes unpleasant: 2
[2]; 500 ppt
  A: number of panels, acid taste/acid smell extreme and cause irritation: 0
  B: number of panels, acid taste/acid smell slightly strong and slightly cause irritation: 0
  C: number of panels, acid taste/acid smell slightly unpleasant: 3
  Flavor judgment: number of panels who judged acid taste/acid smell quality the highest: 0
  N: number of panels, irritation of acid reduced to give a mild acid taste: 4
  X: number of panels, acid taste reduced but piercing odor characteristic to aldehydes unpleasant: 3
